Data: patent US11040987B2 (TenNor Therapeutics Limited, priority 2019, dated 2021)
Values after ≈ are worked out from the molar mass of the structure shown. Where two headings read alike, the source gives them in different places.

Assays:
[1] = system: A.b TNP 41709; test: MIC against A. baumannii clinical isolates, alone and in combination with antibiotics; assay type: cell-based; details: for MIC: Acinetobacter baumannii
[2] = system: K. pneumoniae ATCC 43816; test: MIC determination, broth microdilution, ESKAPE panel; assay type: cell-based; details: Klebsiella pneumoniae
Method in brief: (§1)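 MICs were determined by CLSI broth microdilution with minor modification, using an inoculum of −5×10^5 CFU/well. Reference strains came from ATCC.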

[3] = system: Escherichia coli ATCC 25922; test: as above; assay type: cell-based
Method in brief: as §1

[4] = system: E. faecium ATCC 700221; test: as above; assay type: cell-based; details: Enterococcus faecium
Method in brief: as §1

[5] = system: A. baumannii ATCC 19606; test: as above; assay type: cell-based; details: Acinetobacter baumannii
Method in brief: as §1

[6] = system: S. aureus ATCC 29213; test: as above; assay type: cell-based; details: Staphylococcus aureus
Method in brief: as §1

[7] = system: P. aeruginosa ATCC 27853; test: as above; assay type: cell-based; details: Pseudomonas aeruginosa
Method in brief: as §1

[8] = target: T1, NDM-1 (Klebsiella pneumoniae, UniProt C7C422); test: β-lactamase inhibition, spectrophotometric assay of nitrocefin hydrolysis; assay type: biochemical
T1 construct: made in house
Excerpt: (§2) Hydrolytic inactivation of the β-lactam antibiotics by β-lactamases is the most widespread drug resistant mechanism and the most challenge clinically among Gram-negative bacterial pathogens. Based on the amino acid sequences, the β-lactamases are grouped into four classes (Ambler classification), of which A, C and D are serine hydrolases and B encompasses metallo-β-lactamases. The IC50 of selected derivatives disclosed herein (identified with reference to example number) plus six reference β-lactam or β-lactamase inhibitors were determined against 7 representative β-lactamases of various classes in a standard spectrophotometric assay of nitrocefin hydrolysis. The assay is performed in 384-well plate. The seven recombinant β-lactamases AmpC_AB (from A. baumannii), AmpC_PA (from P. aeruginosa), KPC-2, NDM-1, IMP-1, VIM-1 and OXA 24/40) are expressed and purified. The reaction buffer for class A, C and D enzymes is 100 mM Na2HPO4—KH2PO4 (pH 7.1) plus 0.005% Tween-20, and for class B enzymes 10 μM ZnSO4 is added. […] The 50 μL of reaction solution composed of 2 pM of β-lactamase, 200 μM of nitrocefin and series of 3-fold dilutions of test or control compounds are added by Cybio SELMA system into 384-plate and incubated in dark at 25° C. for 2 hours. The OD490 is read in MC SpectraMax Plus384 plate reader.

[9] = target: T2, IMP-1 (Serratia marcescens, UniProt P52699); test: as above; assay type: biochemical
T2 construct: made in house
Excerpt: as §2

[10] = target: T3, KPC-2 (Klebsiella pneumoniae, UniProt Q9F663); test: as above; assay type: biochemical
T3 construct: made in house
Excerpt: as §2

[11] = target: AmpC_AB (Acinetobacter baumannii, UniProt Q6DRA1); test: as above; assay type: biochemical
Excerpt: as §2

[12] = target: T4, OXA 24/40 (Acinetobacter baumannii, UniProt Q8RLA6); test: as above; assay type: biochemical
T4 construct: made in house
Excerpt: as §2

[13] = target: T5, VIM-1 (Pseudomonas aeruginosa, UniProt A0A0F7KYQ8); test: as above; assay type: biochemical
T5 construct: made in house
Excerpt: as §2

[14] = system: A.b TNP 41704; test: MIC against A. baumannii clinical isolates, alone and in combination with antibiotics; assay type: cell-based; details: for MIC: Acinetobacter baumannii
[15] = target: T6, AmpC_PA (Pseudomonas aeruginosa, UniProt P24735); test: β-lactamase inhibition, spectrophotometric assay of nitrocefin hydrolysis; assay type: biochemical, P. aeruginosa
T6 construct: made in house
Excerpt: as §2

[16] = system: A.b TNP 41708; test: MIC against A. baumannii clinical isolates, alone and in combination with antibiotics; assay type: cell-based; details: for MIC: Acinetobacter baumannii, TNP41708, read-out: MIC A.b TNP 41708
Method in brief: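 MIC read by broth microdilution following CLSI guidance, with minor changes. Each well received a bacterial inoculum of […].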

[17] = TNP41709, Compounds alone, read-out: MIC A.b TNP 41709
[18] = ATCC43816, iron-depleted cation-adjusted Mueller-Hinton broth, 2,2-dipyridyl 160 μM, 37° C., 18-20 hours, read-out: MIC K. pneumoniae ATCC 43816
[19] = ATCC25922, iron-depleted cation-adjusted Mueller-Hinton broth, 2,2-dipyridyl 160 μM, 37° C., 18-20 hours, read-out: MIC E. coli ATCC 25922
[20] = ATCC700221, iron-depleted cation-adjusted Mueller-Hinton broth, 2,2-dipyridyl 160 μM, 37° C., 18-20 hours, read-out: MIC E. faecium ATCC 700221
[21] = ATCC19606, iron-depleted cation-adjusted Mueller-Hinton broth, 2,2-dipyridyl 160 μM, 37° C., 18-20 hours, read-out: MIC A. baumannii ATCC 19606
[22] = ATCC29213, iron-depleted cation-adjusted Mueller-Hinton broth, 2,2-dipyridyl 160 μM, 37° C., 18-20 hours, read-out: MIC S. aureus ATCC 29213
[23] = ATCC27853, iron-depleted cation-adjusted Mueller-Hinton broth, 2,2-dipyridyl 160 μM, 37° C., 18-20 hours, read-out: MIC P. aeruginosa ATCC 27853
[24] = class B β-lactamase, 10 μM ZnSO4, 200 μM nitrocefin, 25° C., 2 hours, read-out: IC50 NDM-1
[25] = class B β-lactamase, 10 μM ZnSO4, 200 μM nitrocefin, 25° C., 2 hours, read-out: IC50 IMP-1
[26] = class A β-lactamase, 200 μM nitrocefin, 25° C., 2 hours, read-out: IC50 KPC-2
[27] = Class C β-lactamase, 200 μM nitrocefin, 25° C., 2 hours, read-out: IC50 AmpC_AB
[28] = class B β-lactamase, 10 μM ZnSO4, 200 μM nitrocefin, 25° C., 2 hours, read-out: IC50 VIM-1
[29] = TNP41704, Compounds alone, read-out: MIC A.b TNP 41704

T3 sequence (Q9F663 25-293, looked up, species assumed): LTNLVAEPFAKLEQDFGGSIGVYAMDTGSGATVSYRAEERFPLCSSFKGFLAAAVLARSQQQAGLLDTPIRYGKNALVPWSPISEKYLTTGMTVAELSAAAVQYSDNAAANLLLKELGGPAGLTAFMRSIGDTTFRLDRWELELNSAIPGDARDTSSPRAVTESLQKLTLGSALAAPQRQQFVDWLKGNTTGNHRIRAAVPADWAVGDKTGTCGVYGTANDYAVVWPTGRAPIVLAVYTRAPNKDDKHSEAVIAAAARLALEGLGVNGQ
T4 sequence (Q8RLA6 22-275): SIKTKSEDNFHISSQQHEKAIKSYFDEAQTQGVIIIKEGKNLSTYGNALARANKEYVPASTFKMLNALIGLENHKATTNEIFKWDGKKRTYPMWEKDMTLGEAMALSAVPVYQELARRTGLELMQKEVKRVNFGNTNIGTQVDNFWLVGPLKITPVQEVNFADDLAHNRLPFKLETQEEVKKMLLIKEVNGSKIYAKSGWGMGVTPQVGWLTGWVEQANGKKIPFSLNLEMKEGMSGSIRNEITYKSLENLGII
T2 sequence (P52699 19-246, looked up, species assumed): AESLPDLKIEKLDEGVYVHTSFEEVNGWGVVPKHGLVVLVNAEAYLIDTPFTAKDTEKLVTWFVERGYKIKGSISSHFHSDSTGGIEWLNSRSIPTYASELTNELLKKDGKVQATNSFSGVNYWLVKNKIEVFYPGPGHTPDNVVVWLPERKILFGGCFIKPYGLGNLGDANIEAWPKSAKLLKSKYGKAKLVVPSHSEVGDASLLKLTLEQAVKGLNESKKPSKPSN
T1 sequence (C7C422 29-270, looked up, species assumed): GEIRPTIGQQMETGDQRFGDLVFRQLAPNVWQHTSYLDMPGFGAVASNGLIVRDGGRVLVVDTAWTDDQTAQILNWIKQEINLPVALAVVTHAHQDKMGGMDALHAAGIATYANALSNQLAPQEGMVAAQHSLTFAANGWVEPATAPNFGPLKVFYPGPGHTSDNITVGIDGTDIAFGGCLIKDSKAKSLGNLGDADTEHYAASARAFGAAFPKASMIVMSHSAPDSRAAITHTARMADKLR
T6 sequence (P24735 27-397): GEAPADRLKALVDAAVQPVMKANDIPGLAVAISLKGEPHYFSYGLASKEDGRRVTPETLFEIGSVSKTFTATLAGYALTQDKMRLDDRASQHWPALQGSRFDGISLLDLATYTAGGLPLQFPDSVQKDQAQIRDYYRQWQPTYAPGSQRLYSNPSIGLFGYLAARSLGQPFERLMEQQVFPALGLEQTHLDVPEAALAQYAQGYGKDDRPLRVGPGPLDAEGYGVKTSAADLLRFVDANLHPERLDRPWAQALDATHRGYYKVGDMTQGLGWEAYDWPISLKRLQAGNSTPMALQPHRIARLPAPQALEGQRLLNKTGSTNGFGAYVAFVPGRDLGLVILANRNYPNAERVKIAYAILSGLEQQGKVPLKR

Row | SMILES | IC50 [12] [µM] | IC50 [15] [µM] | MIC [16] [µg/mL] | MIC [1, 17] [µg/mL] | MIC A.b TNP 41709 ([1]; Compounds + meropenem (1:1)) [µg/mL] | MIC A.b TNP 41709 ([1]; Compounds + sulbactam (1:1)) [µg/mL] | MIC [2, 18] [µg/mL] | MIC [3, 19] [µg/mL] | MIC [4, 20] [µg/mL] | MIC [5, 21] [µg/mL] | MIC [6, 22] [µg/mL] | MIC [7, 23] [µg/mL] | IC50 [8, 24] [µM] | IC50 [9, 25] [µM] | IC50 [10, 26] [µM] | IC50 [11, 27] [µM] | IC50 [13, 28] [µM] | MIC [14, 29] [µg/mL] | MIC A.b TNP 41704 ([14]; Compounds + meropenem (1:1)) [µg/mL] | MIC A.b TNP 41704 ([14]; Compounds + sulbactam (1:1)) [µg/mL] | other results
1 | CC1(C)[C@H](C(=O)O)N2C(=O)C[C@H]2S1(=O)=O [Sulbactam, reference compound] | > 200 | 10.3 | 32 |  |  |  |  |  |  |  |  |  |  |  |  |  |  |  |  |  | MIC ([1]; TNP41709, read-out: MIC A.b TNP 41709): 32 µg/mL; MIC ([2]; ATCC43816, read-out: MIC K. pneumoniae ATCC 43816): 64 µg/mL (≈ 274 µM); MIC ([3]; ATCC25922, read-out: MIC E. coli ATCC 25922): 32 µg/mL (≈ 137 µM); MIC ([4]; ATCC700221, read-out: MIC E. faecium ATCC 700221): > 128 µg/mL; MIC ([5]; ATCC19606, read-out: MIC A. baumannii ATCC 19606): 0.5 µg/mL (≈ 2.14 µM); MIC ([6]; ATCC29213, read-out: MIC S. aureus ATCC 29213): > 128 µg/mL; MIC ([7]; ATCC27853, read-out: MIC P. aeruginosa ATCC 27853): > 128 µg/mL; IC50 [8]: > 200 µM; IC50 [9]: > 200 µM; IC50 [10]: 53.4 µM; IC50 [11]: 10.3 µM; IC50 [13]: > 200 µM; MIC ([14]; TNP41704, read-out: MIC A.b TNP 41704): 8 µg/mL
2 | C[C@]1(/C=N/NC(=O)c2ccc(O)c(O)c2)[C@H](C(=O)O)N2C(=O)C[C@H]2S1(=O)=O [Example 5, (2S,3R,5R)-3-((E)-(2-(3,4-dihydroxybenzoyl)hydrazono)methyl)-3-methyl-7-oxo-4-thia-1-azabicyclo[3.2.0]heptane-2-carboxylic acid 4,4-dioxide] | 11.6 | 1.72 | > 128 | 32 | 2 | 4 | 32 (≈ 80.5 µM) | 64 (≈ 161 µM) | > 128 | 4 (≈ 10.1 µM) | 128 (≈ 322 µM) | > 128 | > 200 | > 200 | > 200 | 1.04 | > 200 | > 128 | 4 | 4 | MIC A.b TNP 41708 ([16]; Compounds + meropenem (1:1)): 4 µg/mL; MIC A.b TNP 41708 ([16]; Compounds + sulbactam (1:1)): 8 µg/mL
3 | C[C@]1(/C=N/NC(=O)CNC(=O)c2ccc(O)c(O)c2)[C@H](C(=O)O)N2C(=O)C[C@H]2S1(=O)=O [Example 64, (2S,3R,5R)-3-((E)-(2-(2-(3,4-dihydroxybenzamido)acetyl)hydrazono)methyl)-3-methyl-7-oxo-4-thia-1-azabicyclo[3.2.0]heptane-2-carboxylic acid 4,4-dioxide] | 5.77 | 0.641 | > 128 | > 128 | 2 | 4 | 128 (≈ 282 µM) | > 128 | > 128 | 8 (≈ 17.6 µM) | 64 (≈ 141 µM) | > 128 | > 200 | > 200 | > 200 | 0.474 | > 200 | > 128 | 2 | 4 | MIC A.b TNP 41708 ([16]; Compounds + meropenem (1:1)): 4 µg/mL; MIC A.b TNP 41708 ([16]; Compounds + sulbactam (1:1)): 8 µg/mL
4 | C[C@]1(/C=N/NC(=O)C2CCN(C(=O)c3ccc(O)c(O)c3Cl)C2)[C@H](C(=O)O)N2C(=O)C[C@H]2S1(=O)=O (stereo partly drawn) [Example 38, (2S,3R,5R)-3-((E)-(2-(1-(2-chloro-3,4-dihydroxybenzoyl)pyrrolidine-3-carbonyl)hydrazono)methyl)-3-methyl-7-oxo-4-thia-1-azabicyclo[3.2.0]heptane-2-carboxylic acid 4,4-dioxide] | 5.93 | 2.38 | > 128 | > 128 | 2 | 8 | 32 (≈ 60.5 µM) | > 128 | > 128 | 8 (≈ 15.1 µM) | 128 (≈ 242 µM) | > 128 | > 200 | > 200 | > 200 | 7.62 | > 200 | > 128 | 4 | 4 | MIC A.b TNP 41708 ([16]; Compounds + meropenem (1:1)): 4 µg/mL; MIC A.b TNP 41708 ([16]; Compounds + sulbactam (1:1)): 8 µg/mL
5 | C[C@]1(COC(=O)NNC(=O)c2ccc(O)c(O)c2Cl)[C@H](C(=O)O)N2C(=O)C[C@H]2S1(=O)=O [Example 70, (2S,3R,5R)-3-(((2-(2-chloro-3,4-dihydroxybenzoyl)hydrazinecarbonyl)oxy)methyl)-3-methyl-7-oxo-4-thia-1-azabicyclo[3.2.0]heptane-2-carboxylic acid 4,4-dioxide] | 29.6 | 9.14 | 16 | 8 | 4 | 4 | > 128 | > 128 | > 128 | 1 (≈ 2.09 µM) | > 128 | > 128 | > 200 | > 200 | 140 | 7.18 | > 200 | 8 | 8 | 4 | activity against KPC-2 of class A (in words) ([10]; text summary of Table 4): weak activity; MIC A.b TNP 41708 ([16]; Compounds + meropenem (1:1)): 8 µg/mL; MIC A.b TNP 41708 ([16]; Compounds + sulbactam (1:1)): 8 µg/mL
